Measurements from patent US9757375B2, “Compounds that inhibit human DNA ligases and methods of treating cancer” (University of Maryland, Baltimore, priority 2007, dated 2017).
Like-named read-outs stand apart in the source and are kept apart here.

Experiments:
hLigIV/XRCC4 = hLigIV/XRCC4 (Homo sapiens, UniProt P49917); test: Radioactive gel-based DNA ligation assay; assay type: biochemical; design: concentration or dose not given beside the values
T4 DNA ligase = molecular target: T1, T4 DNA ligase (Enterobacteria phage T4, UniProt P00970); test: High-throughput fluorescence-based DNA joining assay, non-specific inhibitor control; assay type: biochemical, bacteriophage T4; settings: for inhibition of T4 DNA ligase, in words: in vitro screen, 100 μmol/L
T1 construct: purchased NEB
T1 sequence (P00970 1-487): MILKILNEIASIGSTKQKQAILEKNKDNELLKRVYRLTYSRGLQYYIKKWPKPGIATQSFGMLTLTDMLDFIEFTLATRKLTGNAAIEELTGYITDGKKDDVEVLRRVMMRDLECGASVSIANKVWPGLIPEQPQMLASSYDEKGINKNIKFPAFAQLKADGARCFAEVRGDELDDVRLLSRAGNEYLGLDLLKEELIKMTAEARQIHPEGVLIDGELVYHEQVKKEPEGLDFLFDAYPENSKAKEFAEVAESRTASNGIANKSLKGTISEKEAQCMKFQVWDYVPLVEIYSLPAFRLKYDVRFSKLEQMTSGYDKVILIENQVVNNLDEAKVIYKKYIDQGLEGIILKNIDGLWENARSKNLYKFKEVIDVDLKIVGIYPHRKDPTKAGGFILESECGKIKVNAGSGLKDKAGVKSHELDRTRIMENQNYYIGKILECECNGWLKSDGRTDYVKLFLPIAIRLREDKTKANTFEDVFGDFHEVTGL
Method in brief: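 This counter-screen used a FRET-based DNA joining assay. Duplicate reactions held 10 pmol nicked DNA substrate and 10 units T4 DNA ligase, with or without 100 μmol/L compound. T4 ligase lacks the DNA-binding domain targeted in silico, so compounds inhibiting it were flagged as non-specific, likely DNA-binding.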

[1] = system: MCF7, HCT116, HeLa, and MCF10A cells; test: Survival assay on cell panel (FIG. 9); assay type: cell-based, human; settings: for cell survival: remark in words / EC50: cell line not stated
Excerpt: FIG. 9. […] A, effect of L67 (left) and L189 (right) on the survival of MCF7 (Δ), HCT116 (□), HeLa (⋄), and MCF10A (upsidedown triangle) cells. B, normal breast epithelial MCF10A cells (open symbols) and breast cancer MCF7 cells (filled symbols) in the absence (circles) or presence of 3 μmol/L of L67 (squares) were exposed to increasing concentrations of MMS (left). Normal breast epithelial MCF10A cells (open symbols) and colon cancer HCT116 cells (filled symbols) in the absence (circles) or presence of 20 μmol/L of L189 (squares) were exposed to increasing doses of ionizing radiation (right). C, hLigI (I), hLigIIIα (III), and hLigIV (IV) were detected in extracts (400 μg) of the indicated cell lines by immunoblotting. To control for extract loading β-actin was also detected by immunoblotting.
For survival assays, cells were plated in 6 well plates and grown either in the absence or presence of ligase inhibitors. Where indicated, either MMS (0-50 μM) was added to the medium or the cells were irradiated in a Cs-137 irradiator (0-2.5 Gy). After two weeks, colonies were stained with crystal violet (Sigma) and then counted.

HCT116 and MCF10A cells = test: Cell proliferation screen, result stated for one or both cell lines; assay type: cell-based, human; settings: in vivo cell culture screen
Procedure: (§1) The ability of the compounds identified by CADD to inhibit proliferation of normal mammary epithelial MCF10A cells and colon carcinoma HCT116 cells was determined using a Biomek FX Laboratory Automation Workstation (Beckman Coulter, Inc., Fullerton, Calif.). On day 0, 20 μl of complete medium containing the appropriate number of cells (150-300) was plated per well of a 384-well tissue plate (Fisher Scientific, Hampton, N.H.) and incubated overnight at 37° C. with 5% CO2 and 90% humidity. Next day, day 1, compounds were prepared by serial dilution with complete medium to yield the concentration 100 μM, and 20 μl was added to each well containing 20 μl of medium and cells yielding the final concentration 50 μM in 40 μl volume. Plates were incubated for additional 3 days (days-2-5) until control cells (0.5% DMSO) reached ˜70-80% confluency. On day 6, 40 μl of lysis/detection solution containing 1.2% Igepal CA-630 (Sigma) and a 1:1000 dilution of SYBR Green I nucleic acid stain (Molecular Probes, Eugene, Oreg.) was added to each well. Following an overnight incubation at 37° C., total fluorescence was measured using a Fluorostar Galaxy plate reader with a 485 nm excitation filter and 520 nm emission filter set (BMG Labtech, Inc., Durham, N.C.). Data was exported to a custom program that determined growth inhibition by dividing each individual fluorescence value by the average of fluorescence values obtained with cells treated with DMSO alone.
(§2) The 192 human DNA ligase inhibitors were screened in parallel for effects on proliferation and the ability to potentiate the effects of several DNA damaging agents using two cell human lines, a colon cancer line HCT116 and a normal breast epithelial cell line MCF10A using a Biomek FX Laboratory Automation Workstation as described (23). The DNA damaging agents used, methyl methanesulfonate (MMS), camptothecin, cis-platinum, 3 aminobenzamide and ionizing radiation, are representatives of classes of agents used to treat cancer. Briefly, HCT116 and MCF10A cells were plated in 96 well plates such that the cultures were about 80% confluent after 5 days incubation. Compounds were added to the cultures at either 15 μM or 50 μM 1 day after plating. After incubation for 3 days, cell lysed in a solution containing 1.2% Igepal CA-630 and SYBR green that stains DNA (1:1000, Molecular Probes, Eugene, Oreg.). Subsequently, fluorescence was measured per well. The studies with DNA damaging agents were performed as follows. […] For ionizing radiation, cells were pre-incubated with the compounds at 50 μM for 1 hour prior to exposure to 2 gray of ionizing radiation. Cultures were incubated for 3 days and then treated as above.

HCT116 cells [2] = test: Cell proliferation screen (SYBR Green, Biomek FX); assay type: cell-based, human; settings: for Growth_Inh % (50 μM) HCT116: percentage of values obtained with DMSO alone; for inhibition at 50 µM: Homo sapiens, HCT-116, read-out: % growth inhibition HCT116 50 uM
Procedure: as §1, §2

MCF10A cells = test: Cell proliferation screen (SYBR Green, Biomek FX); assay type: cell-based, human; settings: for Growth_Inh % (50 μM) MCF10A: percentage of values obtained with DMSO alone; for inhibition at 50 µM: Homo sapiens, MCF-10A
Procedure: as §1, §2

HCT116 cells [3] = test: Screen for potentiation of DNA damaging agents (MMS, camptothecin, cis-platinum, 3 aminobenzamide, ionizing radiation); assay type: cell-based, human; settings: for IC50 ratios of non- and 3-AB treated cells HCT116: compound alone vs combination with 3-AB (2 mM); for IC50 ratios of non- and 3-AB treated cells HCT116 / MMS: Ratios of IC50 HCT116: 1 = no sensitization; for MMS: Ratios of IC50 HCT116: compound alone vs combination with MMS (100 μM)
Excerpt: as §2

[4] = 100 μM, read-out: In vitro % inhib T4 100
[5] = read-out: % activity Inhibition LigT4 100 uM
[6] = 50 μM, read-out: In vivo growth inhb MCF10A % Inhb at 50
[7] = read-out: % growth inhibition MCF10A 50 uM

hLigIV/XRCC4, sequence (P49917 whole entry): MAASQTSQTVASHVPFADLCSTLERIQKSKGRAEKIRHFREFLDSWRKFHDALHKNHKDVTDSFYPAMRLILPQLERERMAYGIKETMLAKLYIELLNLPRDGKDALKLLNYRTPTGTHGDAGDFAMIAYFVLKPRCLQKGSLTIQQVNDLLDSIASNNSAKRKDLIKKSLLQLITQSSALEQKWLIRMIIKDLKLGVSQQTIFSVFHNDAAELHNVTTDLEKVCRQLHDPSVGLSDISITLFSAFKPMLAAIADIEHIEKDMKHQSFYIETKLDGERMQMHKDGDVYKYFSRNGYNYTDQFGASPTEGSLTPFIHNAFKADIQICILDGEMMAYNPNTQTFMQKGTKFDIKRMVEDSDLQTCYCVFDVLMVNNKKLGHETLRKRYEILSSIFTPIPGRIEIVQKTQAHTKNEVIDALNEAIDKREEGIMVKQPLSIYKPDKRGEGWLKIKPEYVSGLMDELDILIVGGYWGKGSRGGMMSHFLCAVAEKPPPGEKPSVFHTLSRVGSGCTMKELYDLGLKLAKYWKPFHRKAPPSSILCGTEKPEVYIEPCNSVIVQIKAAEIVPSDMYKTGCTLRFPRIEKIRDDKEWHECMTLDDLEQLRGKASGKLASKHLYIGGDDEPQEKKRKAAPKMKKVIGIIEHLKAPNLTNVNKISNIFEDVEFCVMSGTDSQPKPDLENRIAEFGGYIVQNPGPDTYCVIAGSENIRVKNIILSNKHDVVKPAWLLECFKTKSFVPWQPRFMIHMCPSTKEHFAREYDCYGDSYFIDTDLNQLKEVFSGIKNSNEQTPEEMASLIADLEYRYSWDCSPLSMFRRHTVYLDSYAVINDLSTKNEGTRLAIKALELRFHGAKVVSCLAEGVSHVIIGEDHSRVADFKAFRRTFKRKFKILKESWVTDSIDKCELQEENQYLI
hLigIV/XRCC4, sequence (Q13426 whole entry partner): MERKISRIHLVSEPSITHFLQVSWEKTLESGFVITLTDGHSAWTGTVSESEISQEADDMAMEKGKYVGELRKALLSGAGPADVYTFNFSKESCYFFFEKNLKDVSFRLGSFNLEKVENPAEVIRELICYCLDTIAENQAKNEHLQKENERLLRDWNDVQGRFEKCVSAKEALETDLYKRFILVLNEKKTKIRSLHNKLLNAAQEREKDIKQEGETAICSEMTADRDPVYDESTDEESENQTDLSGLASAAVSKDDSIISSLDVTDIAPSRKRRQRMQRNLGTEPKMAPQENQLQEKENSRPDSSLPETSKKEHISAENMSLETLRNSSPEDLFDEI

SMILES	inhibition at 100 µM (T4 DNA ligase; [4])	inhibition at 100 µM (T4 DNA ligase; [5])	cell survival: remark in words [1]	inhibition of cell proliferation, in words (HCT116 and MCF10A cells)	In vitro growth inhb HCT116 % Inhb at 50 (μM) (HCT116 cells [2])	Growth_Inh % (50 μM) HCT116 (HCT116 cells [2])	inhibition at 50 µM (HCT116 cells [2])	Growth_Inh % (50 μM) MCF10A (MCF10A cells; 50 μM)	inhibition at 50 µM (MCF10A cells; [6])	inhibition at 50 µM (MCF10A cells; [7])	EC50 ([1]; Homo sapiens)	MMS: Ratios of IC50 HCT116 (HCT116 cells [3])	other results
Cc1oc(C(=O)O)cc1CSCc1cc(C(=O)O)c(C)o1 [Compound 197]	24 ± 6%	24.4 ± 5.8%	no activity	–	–	–	–	–	–	–	–	–	% activity Inhibition hLigIV gel (hLigIV/XRCC4): 100%
O=c1[nH]ncc(N/N=C\c2ccc(O)c([N+](=O)[O-])c2)c1Cl [Compound 82]	14 ± 11%	13.9 ± 11.4%	cytostatic, G1	inhibited cell proliferation	40%	40%	40%	70%	70%	70%	~50 µM	–	inhibition of T4 DNA ligase, in words (T4 DNA ligase): inhibit hLigI but not T4 DNA ligase
Cc1c(Br)cc(NCC(=O)N/N=C\c2cc([N+](=O)[O-])ccc2O)cc1Br [Compound 67]	0%	0%	–	inhibited cell proliferation	70%	70%	70%	70%	70%	70%	~10 µM	1.4	inhibition of T4 DNA ligase, in words (T4 DNA ligase): inhibit hLigI but not T4 DNA ligase; IC50 ratios of non- and 3-AB treated cells HCT116 (HCT116 cells [3]): 1; potentiation of the cytotoxic effects of DNA-damaging agents ([1]; L67 3 μmol/L with MMS (MCF7 vs MCF10A), L189 20 μmol/L with ionizing radiation (HCT116 vs MCF10A), FIG. 9B): potentiate the cytotoxic effects of DNA-damaging agents; cytotoxicity (cell survival) ([1]; MCF7, HCT116, HeLa, MCF10A, FIG. 9A): cytotoxic
COc1ccc(-c2cnc3c(O)nc(O)nc3n2)cc1 [Compound 190]	5 ± 1%	5.4 ± 0.74%	–	inhibited cell proliferation	40%	40%	40%	70%	40%	40%	–	–	–
O=C(Cn1cnc([N+](=O)[O-])n1)N/N=C/c1ccc(O)cc1O [Compound 151]	0%	–	–	inhibited cell proliferation	70%	–	70%	–	70%	70%	~10 µM	1.7	Radiosensitizers: IC50 ratios HCT116 (HCT116 cells [3]; ionizing radiation): 2
O=C1Nc2ccccc2Oc2cc([N+](=O)[O-])cc([N+](=O)[O-])c21 [Compound 180]	–	–	–	–	–	70%	–	70%	–	–	–	–	–
C/C(O)=C1/C(=O)N(c2nc3ccccc3s2)N=C1c1ccccc1 [Compound 43]	0%	0%	–	inhibited cell proliferation	70%	–	70%	–	70%	70%	–	–	–
CS(=O)(=O)NNC(=O)C(=O)NNc1ccccc1 [Compound 184]	–	–	–	inhibited cell proliferation	40%	–	–	–	–	–	–	–	% activity Inhibition LigT4 100 uM (T4 DNA ligase; 100 uM): 0.42 ± 1.4%; In vitro % inhib T4 100 (μM) (T4 DNA ligase; 100 μM): 1 ± 1%; % growth inhibition HCT116 50 uM (HCT116 cells [2]; 50 uM): 40%; % growth inhibition MCF10A 50 uM (MCF10A cells; 50 uM): 70%; % growth inhibition of MCF10A cells in culture at 50 uM (MCF10A cells; 50 μM): 70%; EC50 [1]: ~10 µM
CCCCC(=O)c1ccc(O)cc1O [Compound 213]	0%	–	–	inhibited cell proliferation	70%	–	70%	–	70%	70%	–	–	–
O=C(c1ccc(O)cc1)c1ccccc1O [Compound 200]	0%	0%	metabolite active	–	–	–	70%	–	–	70%	–	ID (1)	IC50 ratios of non- and 3-AB treated cells HCT116 (HCT116 cells [3]): ID (1)
